Test results reported in patent US8445676B2, “Pyrrolotriazine kinase inhibitors” (Bristol-Myers Squibb Company, priority 2008, dated 2013).

Assays:
JAK2 = JAK2 (Homo sapiens, UniProt O60674); assay: JAK2 Tyrosine Kinase Assay; assay type: biochemical; conditions: ATP 30 μM; JAK2 1 nM; 60 min room temperature; read-out: Jak2(IC50)
In short: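 Reaction of JAK2 with fluorescent substrate run 60 min at room temperature and stopped with EDTA. Substrate and phosphorylated product separated electrophoretically on a Caliper LabChip. Compounds tested at eleven concentrations in duplicate, with IC50 from non-linear regression.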

JAK3 = target: T1, JAK3 (Homo sapiens, UniProt P52333); assay: JAK3 Tyrosine Kinase Assay; assay type: biochemical; conditions: ATP 8 μM; JAK3 2.5 nM; 60 min room temperature
T1 sequence (P52333 1-1124): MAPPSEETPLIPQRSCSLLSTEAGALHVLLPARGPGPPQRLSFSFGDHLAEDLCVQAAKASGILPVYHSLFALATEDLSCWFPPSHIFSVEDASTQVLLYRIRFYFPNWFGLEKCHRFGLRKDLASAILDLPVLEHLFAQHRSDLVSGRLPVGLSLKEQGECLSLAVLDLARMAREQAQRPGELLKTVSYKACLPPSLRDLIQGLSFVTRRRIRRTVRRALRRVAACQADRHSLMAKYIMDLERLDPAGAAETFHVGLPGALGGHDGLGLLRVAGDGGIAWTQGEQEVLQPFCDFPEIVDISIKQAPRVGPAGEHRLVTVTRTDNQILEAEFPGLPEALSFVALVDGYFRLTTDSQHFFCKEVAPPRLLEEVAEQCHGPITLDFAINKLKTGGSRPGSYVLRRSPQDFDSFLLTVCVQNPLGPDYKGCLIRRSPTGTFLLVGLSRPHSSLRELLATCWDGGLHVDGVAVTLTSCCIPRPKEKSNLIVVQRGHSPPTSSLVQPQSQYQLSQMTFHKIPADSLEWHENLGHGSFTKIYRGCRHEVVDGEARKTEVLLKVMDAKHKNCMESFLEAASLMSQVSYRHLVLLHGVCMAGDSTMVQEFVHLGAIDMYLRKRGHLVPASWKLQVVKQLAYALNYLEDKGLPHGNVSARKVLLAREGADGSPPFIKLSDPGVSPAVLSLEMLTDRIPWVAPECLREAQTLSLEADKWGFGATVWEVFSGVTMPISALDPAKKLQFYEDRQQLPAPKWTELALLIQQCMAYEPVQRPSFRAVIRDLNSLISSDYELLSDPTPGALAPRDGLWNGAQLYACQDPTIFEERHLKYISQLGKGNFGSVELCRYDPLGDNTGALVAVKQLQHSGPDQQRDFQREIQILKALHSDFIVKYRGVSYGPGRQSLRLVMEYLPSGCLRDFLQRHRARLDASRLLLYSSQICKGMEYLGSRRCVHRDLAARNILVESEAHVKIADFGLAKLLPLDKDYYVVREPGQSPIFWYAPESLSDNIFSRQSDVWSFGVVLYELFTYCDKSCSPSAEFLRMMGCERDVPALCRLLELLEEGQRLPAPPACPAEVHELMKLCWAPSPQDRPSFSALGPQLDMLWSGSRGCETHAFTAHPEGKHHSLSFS
Experimental: JAK3 Tyrosine Kinase Assay
The assays were performed in V-bottom 384-well plates. […] The reaction was initiated by the combination of JAK3 with substrates and test compounds. The reaction was incubated at room temperature for 60 min. and terminated by adding 45 μl of 35 mM EDTA to each sample. The reaction mixture was analyzed on the Caliper LabChip 3000 by electrophoretic separation of the fluorescent substrate and phosphorylated product. […] The final concentration of reagents in the assays is ATP, 8 μM; JAK3 fluorescent peptide, 1.5 μM; JAK3, 2.5 nM; and DMSO, 1.6%. […] Compounds were dissolved at 10 mM in dimethylsulfoxide (DMSO) and evaluated at eleven concentrations, each in duplicate. IC50 values were derived by non-linear regression analysis.

JAK2, sequence (O60674 whole entry): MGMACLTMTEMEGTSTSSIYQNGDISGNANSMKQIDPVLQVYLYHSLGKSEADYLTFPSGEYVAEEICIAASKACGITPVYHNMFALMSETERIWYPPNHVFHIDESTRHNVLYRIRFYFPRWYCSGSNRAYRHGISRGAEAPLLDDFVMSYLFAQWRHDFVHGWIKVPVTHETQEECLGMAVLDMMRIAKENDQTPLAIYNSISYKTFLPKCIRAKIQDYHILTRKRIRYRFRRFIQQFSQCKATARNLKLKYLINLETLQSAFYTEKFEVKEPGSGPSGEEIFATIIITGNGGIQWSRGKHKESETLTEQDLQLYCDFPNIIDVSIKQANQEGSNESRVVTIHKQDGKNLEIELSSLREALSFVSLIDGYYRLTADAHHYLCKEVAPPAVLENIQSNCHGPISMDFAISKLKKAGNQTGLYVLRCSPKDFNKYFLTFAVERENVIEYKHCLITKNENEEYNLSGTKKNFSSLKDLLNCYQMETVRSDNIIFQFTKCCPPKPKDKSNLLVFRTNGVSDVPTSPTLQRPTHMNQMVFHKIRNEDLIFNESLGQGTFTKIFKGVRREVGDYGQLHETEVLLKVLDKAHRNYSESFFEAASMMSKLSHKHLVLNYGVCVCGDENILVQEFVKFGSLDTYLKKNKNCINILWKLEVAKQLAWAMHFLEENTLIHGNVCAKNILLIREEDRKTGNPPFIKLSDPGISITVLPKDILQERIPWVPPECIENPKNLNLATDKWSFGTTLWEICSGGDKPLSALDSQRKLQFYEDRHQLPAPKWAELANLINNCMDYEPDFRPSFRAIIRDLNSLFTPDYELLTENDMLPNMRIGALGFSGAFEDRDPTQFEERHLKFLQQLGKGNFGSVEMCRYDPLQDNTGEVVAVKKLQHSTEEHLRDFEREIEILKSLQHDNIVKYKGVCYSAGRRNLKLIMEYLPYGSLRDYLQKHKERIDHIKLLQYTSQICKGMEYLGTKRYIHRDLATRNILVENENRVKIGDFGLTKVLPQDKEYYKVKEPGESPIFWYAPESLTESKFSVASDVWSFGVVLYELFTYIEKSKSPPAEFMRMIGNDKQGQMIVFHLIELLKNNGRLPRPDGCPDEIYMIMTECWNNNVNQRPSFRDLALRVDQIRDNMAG

SMILES	IC50 (JAK2)	IC50 (JAK3)
Cc1cc(Nc2nc(N3CCN(C(=O)C(C)(C)c4ccccc4)CC3)nn3cccc23)n[nH]1 [Example 7, 2-(4-(2-methyl-2-phenylpropanoyl)-1-piperazinyl)-N-(5-methyl-1H-pyrazol-3-yl)pyrrolo[2,1-f] [1,2,4]triazin-4-amine]	320 nM	2060 nM
Cc1cc(Nc2nc(N3CCN(C(=O)Cc4ccccc4C(F)(F)F)CC3)nn3cccc23)n[nH]1 [Example 10, N-(5-methyl-1H-pyrazol-3-yl)-2-(4-((2-(trifluoromethyl)phenyl)acetyl)-1-piperazinyl)pyrrolo[2,1-f][1,2,4]triazin-4-amine]	0.604 nM	9.84 nM
Cc1cc(Nc2nc(N3CCN(C(=O)c4c(F)cccc4F)CC3)nn3cccc23)n[nH]1 [Example 20, 2-(4-(2,6-difluorobenzoyl)-1-piperazinyl)-N-(5-methyl-1H-pyrazol-3-yl)pyrrolo[2,1-f] [1,2,4]triazin-4-amine]	8.14 nM	50 nM
Cc1cc(Nc2nc(N3CCN(C(=O)c4ccc(F)cc4)CC3)nn3cccc23)n[nH]1 [Example 24, 2-(4-(4-fluorobenzoyl)-1-piperazinyl)-N-(5-methyl-1H-pyrazol-3-yl)pyrrolo[2,1-f][1,2,4]triazin-4-amine]	1.14 nM	5.98 nM
Cc1cnc(C(=O)N2CCN(c3nc(Nc4cc(C)[nH]n4)c4cccn4n3)CC2)cn1 [Example 32, 2-(4-((5-methyl-2-pyrazinyl)carbonyl)-1-piperazinyl)-N-(5-methyl-1H-pyrazol-3-yl)pyrrolo[2,1-f] [1,2,4]triazin-4-amine]	7.16 nM	120 nM
Cc1cc(Nc2nc(N3CCN(C(=O)Cc4ccc(F)cc4F)CC3)nn3cccc23)n[nH]1 [Example 37, 2-(4-((2,4-difluorophenyl)acetyl)-1-piperazinyl)-N-(5-methyl-1H-pyrazol-3-yl)pyrrolo[2,1-f][1,2,4]triazin-4-amine]	7.73 nM	160 nM
Cc1cc(Nc2nc(N3CCN(C(=O)Cc4c(Cl)cccc4Cl)CC3)nn3cccc23)n[nH]1 [Example 38, 2-(4-((2,6-dichlorophenyl)acetyl)-1-piperazinyl)-N-(5-methyl-1H-pyrazol-3-yl)pyrrolo[2,1-f][1,2,4]triazin-4-amine]	1.12 nM	30 nM
Cc1cc(Nc2nc(N3CCN(C(=O)Cc4ccc(C(F)(F)F)cc4)CC3)nn3cccc23)n[nH]1 [Example 43, N-(5-methyl-1H-pyrazol-3-yl)-2-(4-((4-(trifluoromethyl)phenyl)acetyl)-1-piperazinyl)pyrrolo[2,1-f][1,2,4]triazin-4-amine]	2660 nM	50000 nM
COc1ccc(CC(=O)N2CCN(c3nc(Nc4cc(C)[nH]n4)c4cccn4n3)CC2)cc1 [Example 45, 2-(4-((4-methoxyphenyl)acetyl)-1-piperazinyl)-N-(5-methyl-1H-pyrazol-3-yl)pyrrolo[2,1-f][1,2,4]triazin-4-amine]	0.891 nM	10 nM
Cc1cc(Nc2nc(N3CCN(C(=O)Cc4cccc(C(F)(F)F)c4)CC3)nn3cccc23)n[nH]1 [Example 48, N-(5-methyl-1H-pyrazol-3-yl)-2-(4-((3-(trifluoromethyl)phenyl)acetyl)-1-piperazinyl)pyrrolo[2,1-f][1,2,4]triazin-4-amine]	0.903 nM	20 nM
COc1cccc(CC(=O)N2CCN(c3nc(Nc4cc(C)[nH]n4)c4cccn4n3)CC2)c1 [Example 49, 2-(4-((3-methoxyphenyl)acetyl)-1-piperazinyl)-N-(5-methyl-1H-pyrazol-3-yl)pyrrolo[2,1-f][1,2,4]triazin-4-amine]	7.9 nM	170 nM
Cc1cc(Nc2nc(N3CCN(C(=O)c4cccc(C#N)c4)CC3)nn3cccc23)n[nH]1 [Example 66, 3-((4-(4-((5-methyl-1H-pyrazol-3-yl)amino)pyrrolo[2,1-f][1,2,4]triazin-2-yl)-1-piperazinyl)carbonyl)benzonitrile]	0.898 nM	10 nM
CO[C@H](C(=O)N1CCN(c2nc(Nc3cc(C)[nH]n3)c3cccn3n2)CC1)c1ccccc1 [Example 90, 2-(4-((2S)-2-methoxy-2-phenylacetyl)-1-piperazinyl)-N-(5-methyl-1H-pyrazol-3-yl)pyrrolo[2,1-f] [1,2,4]triazin-4-amine]	8.15 nM	70 nM
Cc1cc(Nc2nc(N3CCN(C(=O)Cc4ccc(OC(F)(F)F)cc4)CC3)nn3cccc23)n[nH]1 [Example 91, N-(5-methyl-1H-pyrazol-3-yl)-2-(4-((4-(trifluoromethoxy)phenyl)acetyl)-1-piperazinyl)pyrrolo[2,1-f][1,2,4]triazin-4-amine]	0.697 nM	20 nM
Cc1cc(Nc2nc(N3CCN(C(=O)c4ncccn4)CC3)nn3cccc23)n[nH]1 [Example 95, N-(5-methyl-1H-pyrazol-3-yl)-2-(4-(2-pyrimidinylcarbonyl)-1-piperazinyl)pyrrolo[2,1-f] [1,2,4]triazin-4-amine]	6.65 nM	90 nM
Cc1cc(Nc2nc(N3CCN(C(=O)c4ccns4)CC3)nn3cccc23)n[nH]1 [Example 106, 2-(4-(5-isothiazolylcarbonyl)-1-piperazinyl)-N-(5-methyl-1H-pyrazol-3-yl)pyrrolo[2,1-f] [1,2,4]triazin-4-amine]	7.14 nM	40 nM
CO[C@@H](C(=O)N1CCN(c2nc(Nc3cc(C)[nH]n3)c3cccn3n2)CC1)c1ccccc1 [Example 110, 2-(4-((2R)-2-methoxy-2-phenylacetyl)-1-piperazinyl)-N-(5-methyl-1H-pyrazol-3-yl)pyrrolo[2,1-f][1,2,4]triazin-4-amine]	1 nM	20 nM
Cc1cc(Nc2nc(N3CCN(C(=O)C4(c5ccc(F)cc5)CCCCC4)CC3)nn3cccc23)n[nH]1 [Example 126, 2-(4-((1-(4-fluorophenyl)cyclohexyl)carbonyl)-1-piperazinyl)-N-(5-methyl-1H-pyrazol-3-yl)pyrrolo[2,1-f] [1,2,4]triazin-4-amine]	150 nM	1410 nM
Cc1cc(Nc2nc(N3CCN(C(=O)[C@@H](NC(=O)OC(C)(C)C)c4ccc(F)cc4)CC3)nn3cccc23)n[nH]1 [Example 132, tert-butyl((1S)-1-(4-fluorophenyl)-2-(4-(4-((5-methyl-1H-pyrazol-3-yl)amino)pyrrolo[2,1-f][1,2,4]triazin-2-yl)-1-piperazinyl)-2-oxoethyl)carbamate]	0.971 nM	30 nM
Cc1cc(Nc2nc(N3CCN(C(=O)Cc4ccc(C(F)(F)F)cc4C(F)(F)F)CC3)nn3cccc23)n[nH]1 [Example 134, 2-(4-((2,4-bis(trifluoromethyl)phenyl)acetyl)-1-piperazinyl)-N-(5-methyl-1H-pyrazol-3-yl)pyrrolo[2,1-f] [1,2,4]triazin-4-amine]	0.887 nM	8.41 nM
COc1cc(F)c(CC(=O)N2CCN(c3nc(Nc4cc(C)[nH]n4)c4cccn4n3)CC2)c(F)c1 [Example 139, 2-(4-((2,6-difluoro-4-methoxyphenyl)acetyl)-1-piperazinyl)-N-(5-methyl-1H-pyrazol-3-yl)pyrrolo[2,1-f][1,2,4]triazin-4-amine]		70 nM
Cc1cc(Nc2nc(N3CCN(C(=O)C(C)(C)NC(=O)OC(C)(C)C)CC3)nn3cccc23)n[nH]1 [Example 150, tert-butyl (1,1-dimethyl-2-(4-(4-((5-methyl-1H-pyrazol-3-yl)amino)pyrrolo[2,1-f][1,2,4]triazin-2-yl)-1-piperazinyl)-2-oxoethyl)carbamate]	700 nM	13700 nM
